We go through 9 molecules from PubChem BioAssay (NCI).

Test systems include UACC-62 melanoma; HOP-92 NSCLC; HCT-15 colon; SK-MEL-5 melanoma; NCI/ADR-RES ovarian; CAKI-1 renal; U251 CNS; PC-3 prostate; SK-MEL-2 melanoma; HOP-62 NSCLC; SNB-75 CNS; IGROV1 ovarian; OVCAR-8 ovarian; SR leukemia; SK-OV-3 ovarian; UO-31 renal; K-562 leukemia.
Holding throughout (assay): DTP human tumour cell line panel, 48 h

Usually TGI stands for the concentration at which net growth stops. Read a high TGI as less potent growth arrest.

SMILES strings stand for the structures.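 Interpolation was linear, between the two tested concentrations surrounding the appropriate level; five concentrations were tested over 48 hours in 96-well plates. TGI is the concentration that stops growth completely.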

As to `O=C(O)C(C(F)(F)F)C(F)(F)F` (tested in a mixture with another compound), the concentration for total growth inhibition (TGI) in the assay on UACC-62 melanoma, in the assay on HOP-92 NSCLC, with HCT-15 colon, in the assay on SK-MEL-5 melanoma, with NCI/ADR-RES ovarian and in the assay with CAKI-1 renal was greater than 100 µM in each case. Besides, the total growth inhibition concentration (TGI) with U251 CNS, with PC-3 prostate, with SK-MEL-2 melanoma, with HOP-62 NSCLC, in the assay with SNB-75 CNS and in the assay with IGROV1 ovarian was greater than 100 µM in each case. For the same molecule, the concentration for total growth inhibition (TGI) in the assay with OVCAR-8 ovarian, in the assay on SR leukemia, in the assay on SK-OV-3 ovarian, in the assay with UO-31 renal and in the assay with K-562 leukemia was greater than 100 µM in each case.

For the molecule `COc1cc(/C=C/C(=O)N[C@@H]2C(=O)N3[C@@H]2SC(C)(C)[C@@H]3C(=O)O)ccc1O`, the TGI in the assay on UACC-62 melanoma, in the assay with HOP-92 NSCLC, in the assay on HCT-15 colon, in the assay on SK-MEL-5 melanoma, with NCI/ADR-RES ovarian and in the assay with CAKI-1 renal was greater than 100 µM each time. The total growth inhibition concentration (TGI) in the assay on U251 CNS, in the assay on PC-3 prostate, with SK-MEL-2 melanoma, in the assay with HOP-62 NSCLC, in the assay with SNB-75 CNS and in the assay with OVCAR-8 ovarian was greater than 100 µM throughout. The TGI in the assay on SR leukemia, in the assay with SK-OV-3 ovarian, in the assay on UO-31 renal and with K-562 leukemia was greater than 100 µM in each case.

As to `CCOC(=O)c1nc2ccc(C(F)(F)F)cc2nc1NCc1ccc(F)cc1`, the TGI with UACC-62 melanoma was greater than 100 µM; in the assay on HOP-92 NSCLC it was 29.2 µM; in the assay on HCT-15 colon, greater than 100 µM; with NCI/ADR-RES ovarian, greater than 100 µM; in the assay on CAKI-1 renal, greater than 100 µM; in the assay on U251 CNS it was greater than 100 µM. Further, the concentration for total growth inhibition (TGI) with PC-3 prostate was greater than 100 µM; with SK-MEL-2 melanoma, greater than 100 µM; in the assay on HOP-62 NSCLC, greater than 100 µM; in the assay on SNB-75 CNS, greater than 100 µM; with IGROV1 ovarian it was 77.3 µM; in the assay with OVCAR-8 ovarian, greater than 100 µM. Moreover, the total growth inhibition concentration (TGI) in the assay on SR leukemia, in the assay on SK-OV-3 ovarian, with UO-31 renal and in the assay on K-562 leukemia was greater than 100 µM in each case.

In the case of `C/C(=N\NC(N)=S)C(CN1CCCCC1)C(C1=C(O)c2ccccc2OC1)c1ccccc1` (centres undefined), the total growth inhibition concentration (TGI) with UACC-62 melanoma, in the assay on HOP-92 NSCLC, in the assay on HCT-15 colon, with SK-MEL-5 melanoma, in the assay on NCI/ADR-RES ovarian and in the assay with CAKI-1 renal was greater than 100 µM each time. The TGI in the assay with U251 CNS, with PC-3 prostate, with SK-MEL-2 melanoma, with HOP-62 NSCLC, in the assay with SNB-75 CNS and in the assay with IGROV1 ovarian was greater than 100 µM each time. Moreover, the concentration for total growth inhibition (TGI) in the assay on OVCAR-8 ovarian, in the assay with SR leukemia, in the assay with SK-OV-3 ovarian and in the assay on UO-31 renal was greater than 100 µM in each case.

As for `COC(OC)[C@@H]1OC[C@H](n2ccc(=O)[nH]c2=O)[C@H]1O`, the concentration for total growth inhibition (TGI) with UACC-62 melanoma, with HOP-92 NSCLC, in the assay on HCT-15 colon, in the assay on SK-MEL-5 melanoma, with NCI/ADR-RES ovarian and in the assay on CAKI-1 renal was greater than 100 µM each time. Moreover, the concentration for total growth inhibition (TGI) in the assay on U251 CNS, in the assay with PC-3 prostate, with SK-MEL-2 melanoma, in the assay on HOP-62 NSCLC, in the assay with SNB-75 CNS and in the assay on IGROV1 ovarian was greater than 100 µM in each case. Moreover, the TGI in the assay with SR leukemia, in the assay on SK-OV-3 ovarian, in the assay with UO-31 renal and in the assay with K-562 leukemia was greater than 100 µM throughout.

For the molecule `CCOC(=O)n1ccc2c(C(=O)OC)c(C(=O)OC)cc(/C(=C/C(=O)OC)C(=O)OC)c21`, the concentration for total growth inhibition (TGI) in the assay with UACC-62 melanoma, in the assay on HOP-92 NSCLC, with SK-MEL-5 melanoma, with NCI/ADR-RES ovarian, in the assay on CAKI-1 renal and in the assay on U251 CNS was greater than 100 µM in each case. Besides, the concentration for total growth inhibition (TGI) in the assay on PC-3 prostate, with SK-MEL-2 melanoma, in the assay with HOP-62 NSCLC, in the assay on SNB-75 CNS, in the assay on IGROV1 ovarian and in the assay with OVCAR-8 ovarian was greater than 100 µM each time. Further, the concentration for total growth inhibition (TGI) with SR leukemia, with SK-OV-3 ovarian, in the assay with UO-31 renal and in the assay on K-562 leukemia was greater than 100 µM each time.

Consider `CCOC(=O)COc1cc(-c2ccccc2)nc2cc(F)ccc12`, for which the TGI in the assay on UACC-62 melanoma, in the assay on HOP-92 NSCLC, with HCT-15 colon, in the assay on SK-MEL-5 melanoma, with NCI/ADR-RES ovarian and with CAKI-1 renal was greater than 100 µM each time. Moreover, the TGI with U251 CNS, with PC-3 prostate, with SK-MEL-2 melanoma, in the assay on HOP-62 NSCLC, with SNB-75 CNS and in the assay on IGROV1 ovarian was greater than 100 µM in each case. Besides, the total growth inhibition concentration (TGI) in the assay on OVCAR-8 ovarian, in the assay with SR leukemia, in the assay on SK-OV-3 ovarian and with K-562 leukemia was greater than 100 µM each time.

In the case of `CCOC(=O)CCCOc1cc(-c2ccccc2F)nc2cc3c(cc12)OCO3`, the concentration for total growth inhibition (TGI) was greater than 100 µM in the assay on UACC-62 melanoma; greater than 100 µM in the assay on HOP-92 NSCLC; 14.5 µM in the assay on HCT-15 colon; greater than 100 µM in the assay with SK-MEL-5 melanoma; greater than 100 µM with NCI/ADR-RES ovarian; greater than 100 µM with CAKI-1 renal. Moreover, the concentration for total growth inhibition (TGI) in the assay on U251 CNS, with PC-3 prostate, with SK-MEL-2 melanoma, in the assay on HOP-62 NSCLC, with SNB-75 CNS and with IGROV1 ovarian was greater than 100 µM throughout. Also, the TGI with OVCAR-8 ovarian, in the assay on SR leukemia and in the assay with SK-OV-3 ovarian was greater than 100 µM in each case.

As for `CN(C)c1cccc2c(S(=O)(=O)NCCCNCCN)cccc12`, the concentration for total growth inhibition (TGI) in the assay with UACC-62 melanoma is greater than 100 µM; with HOP-92 NSCLC, 80.4 µM; in the assay on HCT-15 colon, greater than 100 µM; in the assay with SK-MEL-5 melanoma, 35.7 µM; with NCI/ADR-RES ovarian, greater than 100 µM; in the assay with CAKI-1 renal it was greater than 100 µM. In addition, the TGI in the assay with U251 CNS is greater than 100 µM; in the assay on PC-3 prostate, greater than 100 µM; in the assay with SK-MEL-2 melanoma, 86.7 µM; in the assay with HOP-62 NSCLC, greater than 100 µM; with SNB-75 CNS, 68.6 µM; in the assay with IGROV1 ovarian it was greater than 100 µM. In addition, the TGI was 39.1 µM with SR leukemia, greater than 100 µM with SK-OV-3 ovarian, greater than 100 µM with UO-31 renal and 43.1 µM with K-562 leukemia.
